Measured values: ChEMBL document CHEMBL1201862, “PubChem BioAssay data set” (2004)
Calls of active or inactive are those of the source.

Experiments:
[1] = NIH-3T3 fibroblast cytotoxicity, dose response, cytotoxicity control, cell-based, fluorescence, Alamar Blue, secondary assay (AID 2327); format: functional;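 note: NIH-3T3 mouse fibroblasts cultured with fluconazole at 8 µg/mL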
[2] = C. albicans growth with fluconazole, confirmation, fluorescence, retest (AID 2467); format: functional, cell-based
[3] = Luminescence Cell-Based Dose Retest to Confirm Inhibitors of Cancer Stem Cells. [Related pubchem assays (depositor defined):AID2717, AID2721]; format: functional; conditions: Homo sapiens
[4] = target: T1, Bcl-2-related protein A1 (Mus musculus, UniProt Q07440); format: functional;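 note: confirmatory dose–response counterscreen on Bfl-1, used to check hits from a UBC13 polyubiquitin inhibitor campaign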
T1 sequence (Q07440 whole entry): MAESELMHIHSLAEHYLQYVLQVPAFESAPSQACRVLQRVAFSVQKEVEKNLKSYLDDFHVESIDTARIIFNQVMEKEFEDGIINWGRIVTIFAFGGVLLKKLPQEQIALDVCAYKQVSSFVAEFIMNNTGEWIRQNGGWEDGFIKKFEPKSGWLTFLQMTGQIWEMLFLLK

[5] = target: T2, Ubiquitin-conjugating enzyme E2 N (Homo sapiens, UniProt P61088); format: functional
T2 sequence (P61088 whole entry): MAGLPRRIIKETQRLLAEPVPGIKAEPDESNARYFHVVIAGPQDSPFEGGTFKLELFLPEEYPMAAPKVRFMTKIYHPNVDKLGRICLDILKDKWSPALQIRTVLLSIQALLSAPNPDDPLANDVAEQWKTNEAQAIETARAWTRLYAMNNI

[6] = target: T2, Ubiquitin-conjugating enzyme E2 N; format: functional; remark: listed apart in the source
[7] = target: T3, DNA repair protein RAD52 homolog (Homo sapiens, UniProt P43351); format: functional, biochemical
T3 sequence (P43351 whole entry): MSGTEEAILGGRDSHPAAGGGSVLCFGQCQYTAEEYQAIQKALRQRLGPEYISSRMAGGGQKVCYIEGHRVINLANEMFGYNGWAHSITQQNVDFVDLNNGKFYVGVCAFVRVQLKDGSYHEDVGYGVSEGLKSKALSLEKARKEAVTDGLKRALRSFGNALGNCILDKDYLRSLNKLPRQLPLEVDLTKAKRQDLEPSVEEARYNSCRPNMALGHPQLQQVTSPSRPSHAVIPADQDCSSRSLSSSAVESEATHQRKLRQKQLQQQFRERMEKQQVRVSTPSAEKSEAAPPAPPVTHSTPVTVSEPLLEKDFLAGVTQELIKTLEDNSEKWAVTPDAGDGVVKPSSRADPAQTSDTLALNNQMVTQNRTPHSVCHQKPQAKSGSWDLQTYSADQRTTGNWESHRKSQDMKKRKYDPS

[8] = target: Paired box protein Pax-8 (Homo sapiens, UniProt Q06710); assay: inhibitors of PAX8-driven TPO luciferase reporter, dose response, RMG-I cells, cherry-pick (AID 687027); format: functional, cell-based;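 note: luciferase reporter driven by Pax8 target thyroperoxidase promoter measured by SteadyGlo luminescence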
[9] = non-specific cell cytotoxicity, dose response, cytotoxicity control for PAX8 inhibitor project, plate reader, dry powder samples (AID 743021); format: functional, cell-based
[10] = target: E3 ubiquitin-protein ligase Mdm2 (Homo sapiens, UniProt Q00987); assay: enhancers of MDM2-luciferase reporter signal, concentration-effect titration, project on inhibitors of MDM2 ubiquitin ligase, cellular assay, luminescent readout, 384-well plate format (AID 1394); format: functional;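 note: MDM2 E3 inhibitors raise luminescence so EC50 is for signal enhancement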
[11] = inhibitors of Vif binding to APOBEC3G peptide, primary screen, biochemical, TR-FRET, GST-Vif 1-94, biotin-A3G peptide, dose response retest (AID 1117319); format: functional;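 note: TR-FRET signal of purified GST-Vif binding a biotinylated A3G peptide; inhibitors lower the FRET signal by blocking Vif and A3G binding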
[12] = target: T4, Hexokinase HKDC1 (Homo sapiens, UniProt Q2TB90); assay: HKDC1 hexokinase inhibitors, dose response, biochemical, W721R variant (AID 504729); format: functional
T4 sequence (Q2TB90 whole entry): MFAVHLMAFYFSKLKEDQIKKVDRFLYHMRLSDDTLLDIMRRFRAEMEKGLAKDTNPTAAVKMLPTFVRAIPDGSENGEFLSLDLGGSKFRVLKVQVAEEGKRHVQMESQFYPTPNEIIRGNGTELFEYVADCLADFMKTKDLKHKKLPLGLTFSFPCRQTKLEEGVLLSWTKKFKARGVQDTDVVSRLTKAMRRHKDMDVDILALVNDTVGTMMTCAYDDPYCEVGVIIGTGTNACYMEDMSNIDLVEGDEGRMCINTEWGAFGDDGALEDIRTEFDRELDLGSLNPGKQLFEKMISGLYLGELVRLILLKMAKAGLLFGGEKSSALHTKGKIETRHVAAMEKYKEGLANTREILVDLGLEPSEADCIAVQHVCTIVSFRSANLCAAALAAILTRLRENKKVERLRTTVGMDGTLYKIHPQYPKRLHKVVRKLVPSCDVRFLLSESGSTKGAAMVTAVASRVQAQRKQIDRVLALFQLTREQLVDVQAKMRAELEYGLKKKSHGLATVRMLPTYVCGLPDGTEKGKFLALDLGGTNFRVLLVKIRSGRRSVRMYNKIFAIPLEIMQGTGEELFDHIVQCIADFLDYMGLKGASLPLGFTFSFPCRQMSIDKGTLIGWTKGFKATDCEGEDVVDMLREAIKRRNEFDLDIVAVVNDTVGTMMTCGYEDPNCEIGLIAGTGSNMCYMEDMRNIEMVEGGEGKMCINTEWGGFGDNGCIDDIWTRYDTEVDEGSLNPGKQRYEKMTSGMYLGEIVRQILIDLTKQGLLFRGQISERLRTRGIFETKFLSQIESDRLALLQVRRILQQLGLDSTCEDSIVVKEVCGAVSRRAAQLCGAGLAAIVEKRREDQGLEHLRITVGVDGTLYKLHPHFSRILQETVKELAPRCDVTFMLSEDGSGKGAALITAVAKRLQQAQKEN

[13] = A Cell Based Secondary Assay To Explore Cytotoxicity of Compounds that Sensitize Mycobacterium Tuberculosis to Beta-Lactam Antibiotics.; format: functional
[14] = A549 cell cytotoxicity, dose response, cytotoxicity control, plate reader, cherry-pick, antagonist series (AID 743412); format: functional, cell-based
[15] = HepG2 cell cytotoxicity, dose response, cytotoxicity control, plate reader, cherry-pick, antagonist series (AID 743416); format: functional, cell-based
[16] = LGR2 antagonists, dose response, cell-based, HEK293, CRE-luciferase reporter, cherry pick, set 2 (AID 743343); format: functional;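 note: transfected cells were stimulated with diluted bursicon conditioned medium after compound addition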
[17] = MC4R antagonists, dose response, counter-screen for LGR2 antagonist project, cell-based, plate reader, cherry pick (AID 743444); format: functional;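 note: transfected HEK 293 cells stimulated with alpha-MSH peptide; potency of inhibitors of the alpha-MSH evoked signal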
[18] = HEK293 cell cytotoxicity, dose response, cytotoxicity control, plate reader, cherry-picked samples (AID 743446); format: functional, cell-based

Sequence of E3 ubiquitin-protein ligase Mdm2 (Q00987 whole entry): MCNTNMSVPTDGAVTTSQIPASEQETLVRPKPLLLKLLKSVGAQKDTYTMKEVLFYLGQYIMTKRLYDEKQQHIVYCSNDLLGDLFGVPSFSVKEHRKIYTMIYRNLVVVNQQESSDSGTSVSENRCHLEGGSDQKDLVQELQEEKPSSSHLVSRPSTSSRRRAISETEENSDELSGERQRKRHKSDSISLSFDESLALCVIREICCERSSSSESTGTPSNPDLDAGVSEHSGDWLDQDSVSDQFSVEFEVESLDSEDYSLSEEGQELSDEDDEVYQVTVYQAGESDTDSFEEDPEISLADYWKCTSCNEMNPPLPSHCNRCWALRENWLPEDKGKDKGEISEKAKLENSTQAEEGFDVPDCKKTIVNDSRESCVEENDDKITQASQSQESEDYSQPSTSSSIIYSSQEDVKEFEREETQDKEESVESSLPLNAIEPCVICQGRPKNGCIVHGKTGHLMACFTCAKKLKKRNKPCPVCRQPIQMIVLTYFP
Sequence of Paired box protein Pax-8 (Q06710 whole entry): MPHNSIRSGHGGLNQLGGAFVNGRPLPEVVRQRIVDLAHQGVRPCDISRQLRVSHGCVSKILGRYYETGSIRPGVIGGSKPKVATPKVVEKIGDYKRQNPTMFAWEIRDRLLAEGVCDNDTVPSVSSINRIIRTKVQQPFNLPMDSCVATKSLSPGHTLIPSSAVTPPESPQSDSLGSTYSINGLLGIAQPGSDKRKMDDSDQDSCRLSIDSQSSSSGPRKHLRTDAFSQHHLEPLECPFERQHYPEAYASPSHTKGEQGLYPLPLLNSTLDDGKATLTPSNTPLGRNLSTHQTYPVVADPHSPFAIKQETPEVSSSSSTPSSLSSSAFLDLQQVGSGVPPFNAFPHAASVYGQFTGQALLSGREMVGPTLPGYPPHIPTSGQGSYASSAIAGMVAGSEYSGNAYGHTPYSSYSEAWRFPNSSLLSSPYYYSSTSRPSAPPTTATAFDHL

SMILES: CN1CCN(CCCNC(=O)c2ccc(/C=C3\Oc4ccccc4N(Cc4ccc(Cl)cc4)C3=O)cc2)CC1
- EC50 [1]: > 150 µM (inconclusive)
- EC50 [2]: > 38 µM (not active)
- AC50 [3]: 3.55 µM (active)
- IC50 [4]: > 20 µM (inactive)
- IC50 [5]: 12.4 µM (active)
- IC50 [6]: 1.35 µM (active)
- AC50 [7]: 17.9 µM (active)
- AC50 [8]: 16.9 µM (active)
- AC50 [9]: 974 nM (active)

SMILES: O=C(O)c1ccc2c(c1)N(Cc1ccccc1F)C(=O)c1ccccc1[S+]2[O-] (stereo not given)
- EC50 [10]: 237 µM (not active)

SMILES: Cc1ccc(CNC(=O)C2c3ccccc3C(=O)N3CCc4ccccc4C23)o1 (stereo not given)
- IC50 [11]: > 100 µM (active)

SMILES: CCCc1nc2oc3c(NCC4CCCO4)ncnc3c2c2c1COC(C)(C)C2 (stereo not given)
- IC50 [12]: 33.2 µM (inactive)

SMILES: COc1cccc(OC)c1C(=O)NNC(=O)c1cccc(COc2ccc3c(c2)CCC3)c1
- EC50 [10]: 0.0021 µM (active)

SMILES: COc1ccc(-c2csc(NC(CO)c3nc4ccccc4n3Cc3ccc(C)cc3)n2)cc1 (stereo not given)
- CC50 [13]: > 40 µM (active)

SMILES: Cc1ccn2cc(-c3ccc(Br)cc3)nc2c1
- AC50 [14]: > 52 µM (inactive)
- AC50 [15]: 49.2 µM (active)
- AC50 [16]: 3.6 µM (active)
- AC50 [17]: 2.76 µM (active)
- AC50 [18]: 42.6 µM (active)

SMILES: O=C(CN1CCN(c2ncccn2)CC1)NCc1ccccc1
- EC50 [10]: 34 µM (not active)
